{"source": "patent US20240398836A1", "about": "“EPOXY STEROIDS” (priority 2021, published 2024)", "key": {"Nalm-6 cells": {"system": "Nalm-6 cells", "experiment": "Half-maximal apoptosis induction (AC50) in Nalm-6 cells", "assay_type": "cell-based", "conditions": "Homo sapiens; Nalm-6, 72 h, flow cytometry; read-out: Biological effect: half-maximal apoptosis induction (AC50)", "experimental": "Apoptosis Induction in Nalm-6 Cells after Treatment with WIL-071 or Different Steroid Derivatives.\n(§1) The cells were incubated in 6-well plates with 1.0·10^5 cells/mL in two milliliters of medium with the respective steroid derivative in different concentrations. The included solvent control (DMSO) served as a control, which was subtracted from all the other measured values, in order not to take into account the spontaneous apoptosis of the cells that takes place independently of the concentration of active ingredient. After 72 h, a modified cell cycle analysis was performed, in order to quantify the proportion of apoptotic cells by flow cytometry. For each concentration of the steroid, the respective mean values f standard deviations, n=3 (*: p<0.05 vs. DMSO, t test) were determined. Using the curve of the dose-effect relationship (steroid concentration−apoptosis induction) formed from these measured values, the steroid concentration at which apoptosis was triggered in 50% of the tested leukemia cells was read."}, "[1]": {"system": "primary glioblastoma cells of a patient", "experiment": "Apoptosis in primary human glioblastoma cells", "assay_type": "cell-based", "conditions": "grade 4", "experimental": "In contrast to conventional glucocorticoids, the steroid WIL 071 can induce apoptosis also in primary human brain tumor cells.\nThe DNA fragmentation was measured by flow cytometry, see FIG. 10. The experiments were performed in triplicate. The error bars show the standard deviations of the measured values of three independent experiments."}, "BJAB cells": {"system": "BJAB cells", "experiment": "Selectivity: apoptosis (DNA fragmentation, flow cytometry) in lymphoma cells", "assay_type": "cell-based", "experimental": "(§2) WIL 071 acts selectively in malignant cells that are proliferating.\n(§3) The DNA fragmentation was measured by flow cytometry, see FIG. 7. The experiments were performed in triplicate. The error bars show the standard deviations of the measured values of three independent experiments."}, "[2]": {"system": "prednisolone-resistant leukemia cells", "experiment": "Overcoming of prednisolone resistance", "assay_type": "cell-based", "conditions": "72 h", "experimental": "as §1\nPrednisolone resistance is said to be overcome if the induction of apoptosis in prednisolone-resistant leukemia cells is as high as it is in normal leukemia cells."}, "[3]": {"system": "glioblastoma cells (DBTRG05MG cells)", "experiment": "Apoptosis in brain tumor cells", "assay_type": "cell-based", "experimental": "In contrast to conventional glucocorticoids, the steroid WIL 071 can induce apoptosis also in brain tumor cells.\nThe DNA fragmentation was measured by flow cytometry, see FIG. 9. The experiments were performed in triplicate. The error bars show the standard deviations of the measured values of three independent experiments."}, "7-CCA cells": {"system": "7-CCA cells", "experiment": "Apoptosis induction in polycytostatics-resistant 7-CCA cells vs BJAB", "assay_type": "cell-based", "conditions": "doxorubicin-resistant BJAB, caspase-3 underexpression", "experimental": "7-CCA cells are lymphoma cells (BJAB cells) that have been made resistent against doxorubin, and have a caspase-3 underexpression as a resistence mechanism. They have co-resistences for the following cytostatics: • vincristine, vinblastine, vindesine, vinorelbin, taxol • cytarabin, fudarabin, cladribin, clofarabin, • daunorubicin, doxorubicin, idarubicin, epirubicin • cisplatin, oxaliplatin\nThe experiments were performed in triplicate. The error bars show the standard deviations of the measured values of three independent experiments. The steroid WIL 071 overcomes steroid resistence in lymphoma cells (7-CCA cells)."}, "[4]": {"experiment": "Tolerability (dose escalation, MTD) in an animal model", "assay_type": "in vivo, NOG-F (Taconic) mice", "experimental": "An incremental increase of dose of the three substances Wil-071, Wil-232 and Wil-369 was performed in 8-week-old female NOG-F (Taconic) mice. Different mice were administered one of up to seven different doses of the test substances. The start was on day 1 with the lowest dose of 10 mg/kg. […] All in all, if possible, the doses 10, 20, 40, 80, 100, 150 and 200 mg/kg are tested. Subsequently, the maximum tolerable dose (MTD) was administered to three more animals, and these were subsequently observed for one week, in order to be able to observe any developing symptoms. For this purpose, the animals were observed and weighed on a daily basis. The body weight is considered an indicator of the general condition of the animals.\nFor the MTD experiment, Wil-071 was dissolved in 100% DMSO, and then diluted 1:50 with a 20% (w/v) 2-hydroxypropyl-beta-cyclodextrin (HPβCD) solution. Thus, 200 μL of injection solution (per mouse) of a 40 mg/kg dose could be achieved. For 80, 100 and 150 mg/kg, the DMSO proportion was increased to up to 4% (v/v) in the final injection solution. In addition, ultrasound had to be employed, and the sample had to be heated at 60° C. for up to 45 min. 200 mg/kg was reached only as a milky suspension. […] Therefore, Wil-071 can be considered non-toxic up to 150 mg/kg. The final MTD could not be determined because of the insufficient solubility.\nFor 100 mg/kg of Wil-232, the end concentration of DMSO in the injection solution was 2%. In order to dissolve Wil-232, the sample also had to be treated with ultrasound, and heated at 60° C. The dose of 150 mg/kg was achieved only with 4% DMSO, and 200 mg/kg was achieved only as a suspension. […] Otherwise, there were no signs of toxicity, so that the substance can be considered tolerable up to 150 mg/kg. In this case too, a final MTD cannot be determined because of insufficient solubility.\nUsing a DMSO stock and 20% HPβCD solution, a maximum of only 5 mg/ml was dissolved. A further increase could not be achieved even with more DMSO or HPβCD. Thus, above the dose of 40 mg/kg, a higher injection volume was injected in order to reach the corresponding dose. […] For the tolerability under the current solubility conditions, a value of […] is to be applied. This dose was injected into the 8 animals for pharmacokinetics. In this case too, a final MTD cannot be determined because of insufficient solubility."}, "human primary leukocytes": {"system": "human primary leukocytes", "experiment": "Selectivity: apoptosis (DNA fragmentation, flow cytometry) in leukocytes", "assay_type": "cell-based", "experimental": "as §2, §3"}, "[5]": {"system": "neuroblastoma cells (SKNAS cells), LiOn cells", "experiment": "Apoptosis in cytostatics-resistant solid tumor cells", "assay_type": "cell-based", "conditions": "SKNAS cells and cisplatin-resistant LiOn cells (caspase-8 underexpression)", "experimental": "In contrast to conventional glucocorticoids, the steroid WIL 071 can induce apoptosis also in solid tumor cells.\nThe DNA fragmentation was measured by flow cytometry), see FIG. 8. The experiments were performed in triplicate. The error bars show the standard deviations of the measured values of three independent experiments."}, "NaKu cells": {"system": "NaKu cells", "experiment": "Apoptosis induction in steroid- and polycytostatics-resistant NaKu cells vs Nalm-6", "assay_type": "cell-based", "conditions": "steroid- and polycytostatics-resistant leukemia cells (ALL)", "experimental": "The experiments were performed in triplicate. The error bars show the standard deviations of the measured values of three independent experiments.\nThe steroid WIL 071 overcomes steroid resistence in leukemia cells (NaKu cells). Further, the steroid-resistent leukemia cells (NaKu cells) have co-resistencies for the following cytostatics: • prednisolone, methylprednisolone, dexamethasone, • doxorubicin, daunorubicin, idarubicin, epirubicin • cytarabine, cladribine • etoposide • cyclophosphamide, ifosfamide • vindesine • cisplatin, carboplatin, oxaliplatin"}}, "data": [{"smiles": "CC(C)CCC[C@@H](C)[C@H]1CC[C@H]2[C@@H]3[C@H]4OC[C@@]5(CC[C@H](O)C[C@]5(O)C4=O)[C@H]3CC[C@]12C", "note": "[WIL-071, 3β,5α-dihydroxy-7β,19-epoxy-cholestan-6-one]", "values": [{"measurement": "AC50", "setting": "Nalm-6 cells", "result": 17.2, "unit": "µM"}, {"measurement": "apoptosis induction (DNA fragmentation)", "setting": "[1]", "result": "significantly induces apoptosis"}, {"measurement": "apoptosis induction (DNA fragmentation)", "setting": "BJAB cells", "result": "apoptosis is induced in a concentration-dependent way"}, {"measurement": "EC50", "setting": "[2]", "result": 16, "unit": "µM"}, {"measurement": "apoptosis induction (DNA fragmentation)", "setting": "[3]", "result": "significantly induces apoptosis"}, {"measurement": "apoptosis induction in resistant 7-CCA cells compared with BJAB", "setting": "7-CCA cells", "result": "induces as much apoptosis as in the non-resistent lymphoma cells"}, {"measurement": "outcome of injection of the 200 mg/kg suspension", "setting": "[4]; 200 mg/kg as suspension, signs of pulmonary embolism in section", "result": "immediate death of the animal"}, {"measurement": "dose up to which non-toxic / tolerable", "setting": "[4]; injection into caudal vein, mice, final MTD not determinable because of solubility", "result": "up to 150 mg/kg"}, {"measurement": "apoptosis induction (DNA fragmentation)", "setting": "human primary leukocytes", "result": "apoptosis is not induced"}, {"measurement": "apoptosis induction / overcoming of cytostatics resistance", "setting": "[5]", "result": "Resistances towards cytostatics are overcome"}, {"measurement": "apoptosis induction in resistant NaKu cells compared with Nalm-6", "setting": "NaKu cells", "result": "induces as much apoptosis as in the non-resistent leukemia cells (Nalm-6)"}]}]}
